Holding throughout (test): cell-based
One assay has as its target hNav1.3 (Homo sapiens, UniProt Q9NY46). Particulars: IonWorks Quattro, read-out: IWQ Use Nav1.3. (Patch clamp records ionic current or voltage across a cell membrane.)
The next assay has as its target hNav1.5 (Homo sapiens, UniProt Q14524). Particulars: IonWorks Quattro, read-out: IWQ Use Nav1.5.
A further assay concerns the target hNav1.7 (Homo sapiens, UniProt Q15858). It counts as cell-based. Particulars: IonWorks Quattro, read-out: IWQ Use Nav1.7.

pIC50: −log10 of the molar value. Read-outs that look alike come from different tables or passages of the source. Positions of bridges follow the written chain, without caps; N, C: chain ends. Residues, ends and D or L forms follow the SMILES beside them.

Sequence of hNav1.5 (Q14524 whole entry, looked up): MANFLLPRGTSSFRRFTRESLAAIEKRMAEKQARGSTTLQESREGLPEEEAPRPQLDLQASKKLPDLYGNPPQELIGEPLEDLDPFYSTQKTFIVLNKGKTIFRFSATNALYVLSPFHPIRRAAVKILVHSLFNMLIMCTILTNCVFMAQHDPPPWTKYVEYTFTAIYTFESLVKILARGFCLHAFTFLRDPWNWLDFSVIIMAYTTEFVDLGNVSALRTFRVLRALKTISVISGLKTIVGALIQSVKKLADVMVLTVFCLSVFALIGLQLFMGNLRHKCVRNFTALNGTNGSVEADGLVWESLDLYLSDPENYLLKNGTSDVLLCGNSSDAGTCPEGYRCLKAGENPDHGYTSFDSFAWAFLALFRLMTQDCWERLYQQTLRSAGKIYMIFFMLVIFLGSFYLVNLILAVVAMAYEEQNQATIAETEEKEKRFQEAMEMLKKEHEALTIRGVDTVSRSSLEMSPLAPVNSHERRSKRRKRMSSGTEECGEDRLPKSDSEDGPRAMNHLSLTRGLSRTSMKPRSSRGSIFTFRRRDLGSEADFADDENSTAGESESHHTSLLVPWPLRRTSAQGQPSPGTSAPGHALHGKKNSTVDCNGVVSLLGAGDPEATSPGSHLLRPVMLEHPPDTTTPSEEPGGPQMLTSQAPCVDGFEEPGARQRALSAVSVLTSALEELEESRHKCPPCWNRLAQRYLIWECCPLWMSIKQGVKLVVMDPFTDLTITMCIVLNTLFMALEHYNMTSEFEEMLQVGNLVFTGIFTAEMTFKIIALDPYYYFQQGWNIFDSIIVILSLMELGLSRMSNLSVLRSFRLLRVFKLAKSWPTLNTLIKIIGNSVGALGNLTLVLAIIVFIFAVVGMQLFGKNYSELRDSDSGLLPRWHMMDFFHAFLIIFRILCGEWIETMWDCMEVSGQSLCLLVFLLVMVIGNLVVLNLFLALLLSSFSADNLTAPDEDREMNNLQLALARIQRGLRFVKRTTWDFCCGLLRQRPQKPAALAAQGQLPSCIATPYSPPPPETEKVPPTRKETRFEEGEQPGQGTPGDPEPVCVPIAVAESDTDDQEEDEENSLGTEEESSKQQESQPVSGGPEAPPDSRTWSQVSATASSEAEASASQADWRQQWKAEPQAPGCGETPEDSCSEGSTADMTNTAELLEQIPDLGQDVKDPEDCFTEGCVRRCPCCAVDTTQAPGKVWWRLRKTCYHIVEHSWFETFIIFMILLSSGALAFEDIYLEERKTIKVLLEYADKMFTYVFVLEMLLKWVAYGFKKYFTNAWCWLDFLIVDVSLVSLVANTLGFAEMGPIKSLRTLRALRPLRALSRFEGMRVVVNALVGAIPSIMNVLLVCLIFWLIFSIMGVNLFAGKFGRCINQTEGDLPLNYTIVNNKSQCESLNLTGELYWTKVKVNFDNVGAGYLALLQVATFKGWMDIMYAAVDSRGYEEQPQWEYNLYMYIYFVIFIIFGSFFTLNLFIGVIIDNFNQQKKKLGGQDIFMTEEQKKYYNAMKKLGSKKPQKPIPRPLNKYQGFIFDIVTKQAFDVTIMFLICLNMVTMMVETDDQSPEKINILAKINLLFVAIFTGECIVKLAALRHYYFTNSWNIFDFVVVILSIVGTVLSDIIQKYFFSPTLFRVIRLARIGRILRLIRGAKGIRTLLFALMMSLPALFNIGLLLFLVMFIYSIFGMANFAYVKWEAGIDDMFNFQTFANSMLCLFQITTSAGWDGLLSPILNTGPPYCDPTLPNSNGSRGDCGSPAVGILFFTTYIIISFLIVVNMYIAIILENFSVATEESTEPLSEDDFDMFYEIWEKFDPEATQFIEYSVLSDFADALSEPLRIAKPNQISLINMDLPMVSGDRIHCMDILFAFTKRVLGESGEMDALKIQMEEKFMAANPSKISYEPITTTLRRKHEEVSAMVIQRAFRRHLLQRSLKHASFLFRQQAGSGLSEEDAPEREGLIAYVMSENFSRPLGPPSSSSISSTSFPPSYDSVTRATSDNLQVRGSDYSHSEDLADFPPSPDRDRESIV
Sequence of hNav1.3 (Q9NY46 whole entry, looked up): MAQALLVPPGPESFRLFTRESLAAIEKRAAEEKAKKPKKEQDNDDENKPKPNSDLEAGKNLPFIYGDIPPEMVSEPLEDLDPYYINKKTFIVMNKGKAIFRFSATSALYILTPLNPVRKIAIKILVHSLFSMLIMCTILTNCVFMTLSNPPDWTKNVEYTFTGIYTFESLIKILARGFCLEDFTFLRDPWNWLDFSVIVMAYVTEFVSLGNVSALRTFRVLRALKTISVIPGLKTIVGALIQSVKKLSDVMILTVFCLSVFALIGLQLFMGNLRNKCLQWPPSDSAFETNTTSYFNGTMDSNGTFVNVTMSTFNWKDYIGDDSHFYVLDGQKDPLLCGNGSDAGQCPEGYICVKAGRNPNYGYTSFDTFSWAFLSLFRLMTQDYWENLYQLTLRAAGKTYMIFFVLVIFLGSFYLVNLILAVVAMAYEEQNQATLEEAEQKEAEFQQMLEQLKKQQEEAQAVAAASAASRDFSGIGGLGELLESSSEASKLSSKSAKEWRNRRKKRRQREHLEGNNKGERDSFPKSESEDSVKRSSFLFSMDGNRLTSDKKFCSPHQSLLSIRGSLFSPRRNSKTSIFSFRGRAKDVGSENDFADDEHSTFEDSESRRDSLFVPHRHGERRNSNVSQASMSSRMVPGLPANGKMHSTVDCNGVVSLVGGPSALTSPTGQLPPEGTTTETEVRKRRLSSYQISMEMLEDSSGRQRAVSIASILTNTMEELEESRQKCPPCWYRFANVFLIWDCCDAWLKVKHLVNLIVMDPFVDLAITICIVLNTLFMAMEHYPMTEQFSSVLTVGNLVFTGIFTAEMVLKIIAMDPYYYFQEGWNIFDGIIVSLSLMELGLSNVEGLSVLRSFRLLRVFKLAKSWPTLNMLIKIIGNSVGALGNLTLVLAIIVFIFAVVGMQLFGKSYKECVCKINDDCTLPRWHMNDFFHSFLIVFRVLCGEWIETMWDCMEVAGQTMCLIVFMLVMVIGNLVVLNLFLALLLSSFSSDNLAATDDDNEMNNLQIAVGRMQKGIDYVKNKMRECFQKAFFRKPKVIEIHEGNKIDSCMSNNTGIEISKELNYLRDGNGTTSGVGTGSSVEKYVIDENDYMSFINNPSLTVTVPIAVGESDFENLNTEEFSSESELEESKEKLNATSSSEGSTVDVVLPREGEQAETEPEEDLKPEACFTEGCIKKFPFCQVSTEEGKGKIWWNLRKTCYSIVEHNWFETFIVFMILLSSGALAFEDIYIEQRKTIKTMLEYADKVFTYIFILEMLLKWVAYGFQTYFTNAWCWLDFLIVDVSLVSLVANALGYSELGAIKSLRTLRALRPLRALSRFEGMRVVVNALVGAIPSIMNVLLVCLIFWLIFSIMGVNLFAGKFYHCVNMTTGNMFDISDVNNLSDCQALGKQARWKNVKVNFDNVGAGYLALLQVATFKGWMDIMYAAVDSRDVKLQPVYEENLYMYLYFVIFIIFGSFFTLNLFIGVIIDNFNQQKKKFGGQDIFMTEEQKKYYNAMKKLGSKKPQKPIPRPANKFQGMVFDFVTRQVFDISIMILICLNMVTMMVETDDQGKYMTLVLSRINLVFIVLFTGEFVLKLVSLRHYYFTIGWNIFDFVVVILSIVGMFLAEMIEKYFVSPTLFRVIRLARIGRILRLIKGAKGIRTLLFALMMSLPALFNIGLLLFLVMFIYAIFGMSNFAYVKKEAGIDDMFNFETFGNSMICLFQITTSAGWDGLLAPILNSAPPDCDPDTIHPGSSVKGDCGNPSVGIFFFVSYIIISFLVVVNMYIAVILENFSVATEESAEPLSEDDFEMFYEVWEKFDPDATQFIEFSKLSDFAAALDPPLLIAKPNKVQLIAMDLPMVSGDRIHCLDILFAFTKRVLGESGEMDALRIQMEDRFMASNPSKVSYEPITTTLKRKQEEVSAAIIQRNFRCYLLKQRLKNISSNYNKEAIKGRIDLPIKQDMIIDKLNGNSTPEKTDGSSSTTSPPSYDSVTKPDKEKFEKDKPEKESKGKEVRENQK

On to `CC[C@H](C)[C@@H]1NC(=O)[C@@H]2CSSC[C@@H]3NC(=O)[C@H](C(C)C)NC(=O)[C@H](CC(C)C)NC(=O)[C@H](CC(N)=O)NC(=O)[C@@H]4CCCN4C(=O)[C@H](CCCNC(=N)N)NC(=O)[C@H](CSSC[C@H](NC(=O)[C@@H](N)CC(=O)O)C(=O)N[C@@H](CC(C)C)C(=O)NCC(=O)N[C@@H](Cc4ccccc4)C(=O)N[C@@H](CCSC)C(=O)N[C@@H](CCCNC(=N)N)C(=O)N[C@@H](CCCCN)C(=O)N2)NC(=O)[C@H](CSSC[C@@H](C(=O)N[C@@H](Cc2c[nH]c4ccccc24)C(=O)N[C@@H](Cc2ccc(O)cc2)C(=O)N[C@H](C(=O)N[C@@H](Cc2ccccc2)C(N)=O)C(C)C)NC(=O)[C@H](Cc2c[nH]c4ccccc24)NC(=O)[C@H](CCCCN)NC(=O)[C@H](Cc2c[nH]cn2)NC(=O)[C@H]([C@@H](C)O)NC(=O)[C@H](CCCNC(=N)N)NC(=O)[C@H](CO)NC3=O)NC(=O)[C@H](CCCCN)NC(=O)[C@H](CC(=O)O)NC(=O)[C@H](CC(N)=O)NC(=O)[C@H](CC(=O)O)NC(=O)[C@@H]2CCCN2C1=O` [compound 179] (H-DCLGFMRKCIPDNDKCCRPNLVCSRTHKWCWYVF-NH2; disulfide 2-17, 9-23, 16-30), for which the pIC50 at hNav1.3 (Table 25, use, […]) was 4.99; on hNav1.5 (Table 25, use, […]), 4.96; at hNav1.7 (Table 25, use, […]) it was 4.63.

Take `CC[C@H](C)[C@@H]1NC(=O)[C@@H]2CSSC[C@@H]3NC(=O)[C@H](C(C)C)NC(=O)[C@H](CC(C)C)NC(=O)[C@H](CC(N)=O)NC(=O)[C@@H]4CCCN4C(=O)[C@H](CCCNC(=N)N)NC(=O)[C@H](CSSC[C@H](NC(=O)[C@@H](N)CC(=O)O)C(=O)N[C@@H](CC(C)C)C(=O)NCC(=O)N[C@@H](Cc4ccccc4)C(=O)N[C@@H](CCSC)C(=O)N[C@@H](CCCNC(=N)N)C(=O)N[C@@H](CCCCN)C(=O)N2)NC(=O)[C@H](CSSC[C@@H](C(=O)N[C@@H](CCCCN)C(=O)N[C@@H](Cc2ccc(O)cc2)C(=O)N[C@@H](Cc2c[nH]c4ccccc24)C(=O)N[C@@H](Cc2ccccc2)C(N)=O)NC(=O)[C@H](Cc2c[nH]c4ccccc24)NC(=O)[C@H](CCCCN)NC(=O)[C@H](Cc2c[nH]cn2)NC(=O)[C@H]([C@@H](C)O)NC(=O)[C@H](CCCNC(=N)N)NC(=O)[C@H](CO)NC3=O)NC(=O)[C@H](CCCCN)NC(=O)[C@H](CC(=O)O)NC(=O)[C@H](CC(N)=O)NC(=O)[C@H](CC(=O)O)NC(=O)[C@@H]2CCCN2C1=O` [compound 180] (H-DCLGFMRKCIPDNDKCCRPNLVCSRTHKWCKYWF-NH2; disulfide 2-17, 9-23, 16-30): the pIC50 on hNav1.3 (Table 26, use, […]) is 8.05; at hNav1.5 (Table 26, use, […]) it was 5.04; on hNav1.7 (Table 26, use, […]), 7.30.

On to `CC[C@H](C)[C@@H]1NC(=O)[C@@H]2CSSC[C@@H]3NC(=O)[C@H](C(C)C)NC(=O)[C@H](CC(C)C)NC(=O)[C@H](CC(N)=O)NC(=O)[C@H](CO)NC(=O)[C@H](CCCNC(=N)N)NC(=O)[C@H](CSSC[C@H](NC(=O)[C@@H](N)CC(=O)O)C(=O)N[C@@H](CC(C)C)C(=O)NCC(=O)N[C@@H](Cc4ccccc4)C(=O)N[C@@H](CCSC)C(=O)N[C@@H](CCCNC(=N)N)C(=O)N[C@@H](CCCCN)C(=O)N2)NC(=O)[C@H](CSSC[C@@H](C(=O)N[C@@H](CCCCN)C(=O)N[C@@H](Cc2ccc(O)cc2)C(=O)N[C@H](C(=O)N[C@@H](Cc2ccccc2)C(N)=O)C(C)C)NC(=O)[C@H](Cc2c[nH]c4ccccc24)NC(=O)[C@H](CCCCN)NC(=O)[C@H](Cc2c[nH]cn2)NC(=O)[C@H]([C@@H](C)O)NC(=O)[C@H](CCCNC(=N)N)NC(=O)[C@H](CO)NC3=O)NC(=O)[C@H](CCCCN)NC(=O)[C@H](CC(=O)O)NC(=O)[C@H](CC(N)=O)NC(=O)[C@H](CC(=O)O)NC(=O)[C@@H]2CCCN2C1=O` [compound 181] (H-DCLGFMRKCIPDNDKCCRSNLVCSRTHKWCKYVF-NH2; disulfide 2-17, 9-23, 16-30), for which the pIC50 on hNav1.3 (Use) was 7.51; on hNav1.5 (Use) it was 4.94; on hNav1.7 (Use) it was 7.06.

For the origin of these results see patent US9340590B2 (priority 2011, dated 2016).
